Assay results as given in PubChem BioAssay (NCI).
Where “and” joins values, the source holds several entries; their conditions need not be identical. Identical values can stand only once.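 Exposure lasted 48 hours, with cells grown in 96-well plates and compounds tested at five concentrations. GI50 is the concentration that inhibits growth by half. The concentration for full growth arrest is given as TGI.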

Assays:
Experiment in all cases: NCI tumour cell line growth inhibition, 48 h
DMS 273 small cell lung = system: DMS 273 small cell lung
SNB-78 CNS = system: SNB-78 CNS
HOP-18 NSCLC = system: HOP-18 NSCLC
LXFL 529 NSCLC = system: LXFL 529 NSCLC
XF 498 CNS = system: XF 498 CNS
KM20L2 colon = system: KM20L2 colon
M19-MEL melanoma = system: M19-MEL melanoma
RXF-631 renal = system: RXF-631 renal
MDA-N = system: MDA-N
P388/ADR leukemia = system: P388/ADR leukemia
SN12K1 renal = system: SN12K1 renal

Structure (SMILES) | TGI (DMS 273 small cell lung) [µM] | TGI (SNB-78 CNS) | TGI (HOP-18 NSCLC) [µM] | TGI (LXFL 529 NSCLC) [µM] | TGI (XF 498 CNS) | TGI (KM20L2 colon) [µM] | TGI (M19-MEL melanoma) [µM] | TGI (RXF-631 renal) [µM] | TGI (MDA-N) [µM] | also measured
O=C(c1cc(O)ccc1O)c1ccccc1C(Cl)(Cl)Cl | > 100 | > 100 µM | > 100 | > 100 | 84.2 µM | > 100 | > 100 | – | – | –
O=C(CC(=O)N1N=C(c2ccccc2)C(N=Nc2ccc(C(=O)O)cc2)C1=O)Nc1ccc(F)cc1 (stereo not given) | 78.7 | > 100 µM | – | > 100 | 93.4 µM | > 100 | > 100 | > 100 | – | –
Cn1c2c([N+](=O)[O-])[se]nc2c(=O)n1-c1ccc([N+](=O)[O-])cc1 | 6.96 | 3.76 µM | 5.17 | 2.5 | 3.71 µM | 18.3 | – | 4.04 | – | –
CCOC1OCCCC1Br (stereo not given) | – | – | – | – | – | – | – | – | > 100 | –
NCCCCCS(=O)(=O)O | > 100 | > 100 µM | > 100 | > 100 | – | > 100 | > 100 | > 100 | – | –
CC#C[C@@]1(O)CCCC[C@@H]1O | > 100 | > 100 µM | > 100 | – | > 100 µM | > 100 | > 100 | > 100 | – | –
OCC(O)C(O)c1nn(-c2ccccc2)c2nc3cc(Cl)c(Cl)cc3nc12 (stereo not given) | 56.6 | > 100 µM | > 100 | 70.9 | > 100 µM | 75.8 | > 100 | 91.5 | – | –
COC(=O)C1=C(OC)c2cc3c(cc2C(c2cc(OC)c(OC)c(OC)c2)C1C(=O)OC)OCO3 (stereo not given) | > 100 | > 100 µM | > 100 | > 100 | > 100 µM | > 100 | > 100 | – | – | –
Cc1c[nH]c2c1C13CC1CN(C(=O)c1cc4cc(NC(=O)c5cc6ccccc6o5)ccc4[nH]1)C3=CC2=O (stereo not given) | – | 32.1 nM and 0.0318 µg/mL | < 0.001 | – | – | < 0.001 | < 0.001 | 0.0139 | – | GI50 (DMS 273 small cell lung): > 1.17 ng/mL; GI50 (P388/ADR leukemia): > 1.17 ng/mL; GI50 (SNB-78 CNS): > 1.17 ng/mL; GI50 (SN12K1 renal): > 1.17 ng/mL
c1ccc2c(CNCCCCCCNCc3cccc4ccccc34)cccc2c1 | 26.6 | 23.9 µM | 29.1 | 3.39 | 7.26 µM | 6.74 | 14.3 | 9.46 | – | –
Nc1[nH]c(=O)ncc1F | – | – | – | – | – | – | – | – | > 100 | –
O=C1C2c3[nH]c4ccccc4c3[C@@H]3CCCCCCCCCCC3C2C(=O)N1c1ccccc1 (stereo not given in full) | > 100 | 24.7 µM | 99.6 | 28.1 | – | – | 57.4 | 28 | – | –
CC1=NNC(=NCCN(C)C)C/C1=C/c1ccccc1Cl | > 100 | > 100 µM | > 100 | > 100 | > 100 µM | > 100 | > 100 | > 100 | – | –
O=C(O)c1c(O)c2cc(Br)ccc2oc1=O | – | – | – | – | – | – | – | – | > 100 | –
Nc1nc2c(ncn2C2OC(CO)C(O)C2N)c(=O)[nH]1 (stereo not given) | > 100 | > 100 µM | – | > 100 | > 100 µM | – | > 100 | > 100 | – | –
COC(=O)c1c[nH]c(=O)[nH]c1=O | – | – | – | – | – | – | – | – | > 100 | –
N#Cc1cccc(NC(=O)c2ccc(C(=O)O)c(C(=O)c3ccc(C(=O)O)c(C(=O)Nc4cccc(C#N)c4)c3)c2)c1 | > 100 | > 100 µM | > 100 | > 100 | > 100 µM | > 100 | > 100 | – | – | –
Cc1cccc(NC(=O)C(=O)C2C(=O)NC(=O)NC2=O)c1C | > 100 | > 100 µM | > 100 | > 100 | – | > 100 | > 100 | – | – | –
COc1ccccc1/C=C\c1cnnc2ccccc12 | – | – | – | – | – | – | – | – | 9.66 | –
O=C(c1ccccc1)C1C(C(=O)c2ccccc2)N1Cc1ccccc1 (stereo not given) | – | – | – | – | – | – | – | – | 37.4 | –
COC(=O)C(=O)C1(CCC(C)=O)c2ccccc2-c2ccccc21 | > 100 | – | > 100 | > 100 | – | > 100 | > 100 | – | – | –
CCOC(=O)C1N(S(=O)(=O)c2ccc(C)cc2)CCC12c1ccccc1N(C(C)=O)C2C(/C=C/C(=O)OC)=C/C(=O)OC (stereo not given) | > 100 | > 100 µM | – | > 100 | > 100 µM | > 100 | > 100 | – | – | –

Structure (SMILES) | TGI (DMS 273 small cell lung) [µM] | TGI (SNB-78 CNS) | TGI (HOP-18 NSCLC) [µM] | TGI (LXFL 529 NSCLC) [µM] | TGI (XF 498 CNS) | TGI (KM20L2 colon) [µM] | TGI (M19-MEL melanoma) [µM] | TGI (RXF-631 renal) [µM] | TGI (MDA-N) [µM] | also measured
CC(C)[C@@H]1C=C(c2ccccc2)c2ccccc2C1C(C#N)(C#N)C(C)C (stereo not given in full) | > 100 | > 100 µM | > 100 | > 100 | > 100 µM | > 100 | > 100 | – | – | –
Cc1cc(C)cc(-n2c3nc(=O)n(C)c(=O)c-3nc3ccccc32)c1 | 37.7 | > 100 µM | > 100 | > 100 | 81 µM | 52.9 | 18.5 | 80.3 | – | –
CC[C@@]1(O)C(=O)NCc2c1cc1n(c2=O)Cc2cc3ccccc3nc2-1 | – | – | – | – | – | – | – | – | > 100 | GI50 (MDA-N): 12.4 µM
Cc1cnc[nH]c1=O | > 100 | > 100 µM | > 100 | > 100 | – | > 100 | > 100 | > 100 | – | –
COC(=O)C[CH](C(=O)OC)[Ge]([CH3])([CH3])[S]c1ccccc1 (stereo not given) | 29.9 | 96.7 µM | > 100 | 36 | – | 67.9 | 54.7 | – | – | GI50 (DMS 273 small cell lung): 12.6 µM; GI50 (SNB-78 CNS): 22.1 µM; GI50 (HOP-18 NSCLC): > 100 µM; GI50 (LXFL 529 NSCLC): 17.5 µM; GI50 (KM20L2 colon): 26.7 µM; GI50 (M19-MEL melanoma): 16.9 µM
N/C(=N\NS(=O)(=O)c1ccccc1)Oc1ccc(Cl)cc1 | > 100 | > 100 µM | > 100 | > 100 | > 100 µM | > 100 | > 100 | – | – | –
C/C1=C\[C@H](C)C[C@H](C)OC(=O)C[C@H](c2ccc(O)cc2)NC(=O)[C@@H](Cc2c(Br)[nH]c3ccccc23)N(C)C(=O)[C@H](C)NC(=O)[C@@H](C)C1 | 0.83 | 0.795 µM and 0.163 µM | – | 3.41 | 0.448 µM and 0.0585 µM | 10.7 | 2.02 | – | 2.83 | GI50 (RXF-631 renal): 0.047 µM; GI50 (SNB-78 CNS): 0.0339 µM; GI50 (LXFL 529 NSCLC): 0.0299 µM; GI50 (XF 498 CNS): 0.0249 µM; GI50 (KM20L2 colon): 0.0277 µM; GI50 (M19-MEL melanoma): 0.0414 µM
C(=N\Nc1nnc2c(n1)[nH]c1ccccc12)/c1cccnc1 | – | – | – | – | – | – | – | – | > 100 | –
O=c1[nH]cc(CS(=O)(=O)Cc2c[nH]c(=O)[nH]c2=O)c(=O)[nH]1 | – | – | – | – | – | – | – | – | > 100 | –
O=C1c2ccccc2C(=O)c2c(NCCCNCCO)ccc(NCCCNCCO)c21 | – | 30.8 µM | 67.2 | 16.1 | 27 µM | 19.9 | 18.6 | > 100 | 20 | –
C/C(=C\c1ccc(Cl)cc1)C(C)(C)C(=O)O | – | – | – | – | – | – | – | – | > 100 | –
CCCCCCCCCCCC(=O)OCC1OC(n2cc(F)c(=O)[nH]c2=O)C(NC(=O)OCc2ccccc2)C(O)C1O (stereo not given) | 36.2 | 87.7 µM | – | 34.3 | – | 42.3 | 37.2 | – | – | –
Cc1cc(NS(=O)(=O)c2ccc(Nc3c4ccccc4nc4c(C(=O)Nc5ccc(S(=O)(=O)N=C(N)N)cc5)cccc34)cc2)no1 | > 100 | > 100 µM | > 100 | > 100 | > 100 µM | > 100 | > 100 | > 100 | – | –
C=CN1C(=O)OC(c2ccccc2)C1c1ccccc1 (stereo not given) | > 100 | > 100 µM | > 100 | > 100 | – | > 100 | > 100 | > 100 | – | GI50 (RXF-631 renal): > 100 µM; GI50 (SNB-78 CNS): > 100 µM; GI50 (HOP-18 NSCLC): > 100 µM; GI50 (LXFL 529 NSCLC): > 100 µM; GI50 (KM20L2 colon): > 100 µM; GI50 (M19-MEL melanoma): > 100 µM
COc1ccc2cccc(C(=O)c3ccc(C)c4c3CCC4)c2c1 | 70 | – | > 100 | > 100 | – | > 100 | > 100 | 43.9 | – | –
Cc1ccc(S(=O)(=O)N(/N=C(\N)Oc2ccc(Cl)cc2)C(=N)Oc2ccc(Cl)cc2)cc1 | > 100 | > 100 µM | > 100 | > 100 | > 100 µM | > 100 | > 100 | – | – | –
CCC1C(C)c2c([nH]c3ccccc23)C2C(=O)N(c3ccccc3)C(=O)C21 (stereo not given) | 37.4 | 67.6 µM | – | 96.2 | 36 µM | – | 29.6 | 26.3 | – | –
S=c1nc(-c2nc(=S)[nH]c3c2CCCCCCCCCC3)c2c([nH]1)CCCCCCCCCC2 | – | – | – | – | – | – | – | – | > 100 | –
S=c1nc[nH]c2c1ncn2Cc1ccco1 | – | – | – | – | – | – | – | – | > 100 | –
COC(=O)/C=C/C(=O)C1C(C(=O)OC)C2(C(=O)OC)CCC1(C(=O)OC)N2 (stereo not given) | – | > 100 µM | > 100 | – | – | – | > 100 | – | – | –
O=P(Oc1ccc(Cl)cc1)(Oc1ccc(Cl)cc1)N1CC1 | – | – | – | – | – | – | – | – | > 10 | –
